US20160279043A1, “COMBINATIONS OF N-ACETYL CYSTEINE DERIVATIVES AND CRANBERRY POLYPHENOLS IN COMPOSITIONS AND METHODS FOR PREVENTING AND TREATING PERIODONTAL DISEASES AND PERI-IMPLATITIS” (DENTALMED PHARM HOLDING LTD., priority 2013, published 2016)
Entries after “also recorded” stand apart in the source; their conditions may differ.

Experiments:
[1] = test system: Aggregibcater actynomycetemcomitans; assay: Pre-formed biofilm challenge, MBEC P&G assay, LOG10 reduction; format: cell-based, Aggregibcater actynomycetemcomitans (ATCC 43717)
Protocol: (§1) Sterile MBEC™ P&G plates coated with Hydroxyapatite were used for biofilm growth. The plates consist of plastic lids with 96 protruding polystyrene pegs that have each been coated with hydroxyapatite and a corresponding 96 well base into which the inoculum is placed. The bacterial inoculum for each plate is 150 μL in each well (Innovotech Inc., Edmonton, Alberta, Canada).
(§2) Using a cryogenic stock (at −70° C.), a first sub-culture of the bacterial organisms listed above was streaked out on an organism specific agar (OSA). The bacterium was incubated at appropriate growth conditions for 24-48 hours and the plate was stored wrapped in parafilm at 4° C. for the aerobic strain (Aggregibcater actynomycetemcomitans) and 21° C. in the anaerobic chamber for anaerobic strain (Porphyromonas gingivalis). From the first sub-culture, a second sub-culture was streaked out on OSA. It was incubated at appropriate growth conditions for 24-48 hours. The second sub-culture was used within 24 hours starting from the time it was first removed from incubation. Using the second sub-culture, an isolated colony was aseptically removed from the OSA plate and inoculated into 100 mL of sterile bacterial liquid growth broth. The latter was incubated at 150 rpm at appropriate growth conditions for 24-24 hour. This yielded a viable bacterial density of approximately 10^9 CFU/mL and was checked by serial dilution and plating. The inoculum was adjusted to an approximate cell density of 10^6 CFU/mL by diluting in organism specific broth (OSB). The diluted organism was vortexed for approximately 10 seconds to achieve uniform mixing of the organism. One sample (100 μL) of the diluted organism was used for an inoculum check by serially diluting and spot plating on OSA in triplicate. It should be noted that for the anaerobic microorganism, growth, sonication, serial dilution, transfer and recovery of the organism was performed under anaerobic conditions (5% H2, 10% CO2, 85% N2).
(§3) Each bacterial over-night culture was diluted 1,000× in its specific OSM. Using a micro pipette, 150 μL of inoculum was added to the appropriate wells of a 96 well plate, except for wells that served as sterility controls (SC). Sterility control wells received sterile OSB. The HA MBEC™ P&G lid was then inserted into the 96-well bottom. It should be noted that the volume of inoculum used in this step has been calibrated such that the biofilm covers a surface area that is immersed, entirely, by the volume of antimicrobials used in the challenge plate set up. The device was placed on the gyrorotary shaker in a humidified incubator and incubated at 110 rpm at the appropriate growth conditions. Porphyromonas gingivalis was incubated for 24 hours, and Aggregibcater actynomycetemcomitans was incubated for 48 hours. A triplicate sample of the inoculum was serially diluted (ten-fold). The latter served as controls used to verify the starting cell number in the inoculum. The serial 10-fold dilutions of the inoculum from 10^−7 to 10^0 were spot plated on an appropriately labeled series of agar plates. The spot plates were incubated for an appropriate period of time and scored for growth.
(§4) The biofilm growth check (GCh) pegs were broken off from the challenge plate with flamed pliers. Each peg was placed into 200 μL of neutralizer in row A of serial dilution plate. The plates were sonicated for 30 minutes. Then serial dilution and spot plating on OSA was performed, which served as a biofilm growth check.
(§5) Biofilms were tested using the specified contact times. Callenge plates were used for testing the killing activity of the tested biocidic compounds on formed biofilm and other plates to test the inhibitory effect of biofilm formation. SC wells served as sterility controls for each experiment. One challenge plate was used per growth condition and challenge time. GC is the growth control. GCh is the biofilm Growth Check. […]

[2] = test system: Porphyromonas gingivalis; assay: as above; format: cell-based, Porphyromonas gingivalis (ATCC 33277)
Protocol: as §1, §2, §3, §4, §5

[3] = test system: Aggregibcater actynomycetemcomitans; assay: Growth inhibition, LOG10 reduction; format: cell-based, Aggregibcater actynomycetemcomitans (ATCC 43717)
Protocol: as §2
(§6) Biofilms were tested using the specified contact times. Callenge plates were used for testing the killing activity of the tested biocidic compounds on formed biofilm and other plates to test the inhibitory effect of biofilm formation. SC wells served as sterility controls for each experiment. One challenge plate was used per growth condition and challenge time. GC is the growth control. GCh is the biofilm Growth Check.
(§7) Using a sterile 96-well microtitre plate the following was done aseptically to set up the above challenge plates. 200 μL of sterile OSM was added to wells that served as the device sterility control for the media and for biofilm growth checks. 200 μL of sterile neutralizer was added to wells that served as the neutralizer toxicity control. 100 μL of the neutralizer and 100 μL of each of the tested compounds or combinations were added to wells serving as neutralizer affectivity control. 200 μL of biocide stock solution was added to wells which served as the biocide diluent sterility control. Serial dilutions of the tested compounds and combinations in the diluents (OSM) were performed. Each freshly prepared challenge plate was aseptically covered and left to stand at room temperature for 30 minutes to equilibrate prior to use.
(§8) Following sonication of all plates, 100 μL was placed from each well of the MBEC™ plate into the first 12 empty wells of the first row of a 96 well-micro titer plate. 180 μL of sterile 0.9% saline were placed in the remaining rows. A Serial dilution (10^0-10^−7) was performed by moving 20 μL down each of the 8 rows. 10 μL were removed from each well and spot plated on prepared OSA plates. Plates were incubated at 37±1° C. and counted after approximately 24-48 hours of incubation. The data obtained was evaluated as Log 10 CFU/peg. 100 μL of the sterile neutralizer were placed in each well of the recovery plate to top up the volume back to 200 μL.
(§9) LOG10 Reduction=Mean LOG10 Growth Control−Mean LOG10 Test.

[4] = test system: Porphyromonas gingivalis; assay: Growth inhibition, LOG10 reduction; format: cell-based, Porphyromonas gingivalis (ATCC 33277)
Protocol: as §2, §6, §7, §8, §9

[5] = test system: Aggregibcater actynomycetemcomitans; assay: Planktonic MIC; format: cell-based, Aggregibcater actynomycetemcomitans (ATCC 43717); details: Compound A alone; 24 hours
Protocol: (§10) The MIC (minimum inhibitory concentration) for the compound was determined for each organism shed from the biofilm during the challenge incubation. The MIC was defined as the minimum concentration that inhibits growth of the organism.

[6] = test system: Porphyromonas gingivalis; assay: Planktonic MIC; format: cell-based, Porphyromonas gingivalis (ATCC 33277); details: Compound A alone; 24 hours
Protocol: as §10

[7] = test system: Aggregibcater actynomycetemcomitans; assay: Planktonic minimum bactericidal concentration (MBC); format: cell-based, Aggregibcater actynomycetemcomitans (ATCC 43717); details: Compound A alone; 24 hours contact
Protocol: (§11) After the specified contact time (24 hours), 20 μL from each well of the challenge plate were removed and placed into the corresponding wells of a fresh 96 well Nunc plate containing 180 μL OSM. The plate was incubated at 37° C. for 24 hours.

[8] = test system: Porphyromonas gingivalis; assay: as above; format: cell-based, Porphyromonas gingivalis (ATCC 33277); details: Compound A alone; 24 hours contact
Protocol: as §11

[9] = test system: Aggregibcater actynomycetemcomitans; assay: Biofilm MBEC; format: cell-based, Aggregibcater actynomycetemcomitans (ATCC 43717); details: Compound A alone
Protocol: (§12) MBEC is defined as the minimum concentration of test compound that inhibits growth of the biofilm. The recovery plate prepared according to the description above was incubated at 37° C. for 24 hours and read visually to determine MBEC values. A microtiter plate reader was used to obtain optical density measurements at 630 nm (OD630). Clear wells (OD630<0.1) ware evidence of biofilm eradication.

[10] = test system: Porphyromonas gingivalis; assay: Biofilm MBEC; format: cell-based, Porphyromonas gingivalis (ATCC 33277); details: Compound A alone
Protocol: as §12

[11] = Compound A, all tested concentrations

CC(=O)N[C@@H](CS)C(=O)O [Compound A, N-acetyl cysteine]
Log Reduction, Biofilm, A.a. ([1]; Compound A 0.15%): 0.51 log | Log Reduction, Biofilm, A.a. ([1]; Compound A 0.31%): −0.02 log | Log Reduction, Biofilm, A.a. ([1]; Compound A 0.62%): 0.23 log | Log Reduction, Biofilm, A.a. ([1]; Compound A 1.25%): 0.36 log | Log Reduction, Biofilm, A.a. ([1]; Compound A 2.50%): −0.01 log | Log Reduction, Biofilm, A.a. ([1]; Compound A 5%): 0.39 log | Log Reduction, Biofilm, A.a. ([1]; Compound A 10%): 3.02 log | Log Reduction, Biofilm, A.a. ([1]; Compound A 20%): 3.25 log | Log Reduction, Biofilm, P. gingivalis ([2]; Compound A 0.15%): 0.11 log | Log Reduction, Biofilm, P. gingivalis ([2]; Compound A 0.31%): 0.07 log | Log Reduction, Biofilm, P. gingivalis ([2]; Compound A 0.62%): −0.07 log | Log Reduction, Biofilm, P. gingivalis ([2]; Compound A 1.25%): −0.18 log | Log Reduction, Biofilm, P. gingivalis ([2]; Compound A 2.50%): 0.13 log | Log Reduction, Biofilm, P. gingivalis ([2]; Compound A 5%): −0.18 log | Log Reduction, Biofilm, P. gingivalis ([2]; Compound A 10%): −0.17 log | Log Reduction, Biofilm, P. gingivalis ([2]; Compound A 20%): 0.13 log | Reducing preformed biofilm of P. gingivalis (in words) [2, 11]: ineffective; also recorded: No inhibition or biofilm reduction | Log Reduction, Growth Inhibition, A.a. ([3]; Compound A 0.15%): 0.24 log | Log Reduction, Growth Inhibition, A.a. ([3]; Compound A 0.31%): 0.28 log | Log Reduction, Growth Inhibition, A.a. ([3]; Compound A 0.62%): 0.74 log | Log Reduction, Growth Inhibition, A.a. ([3]; Compound A 1.25%): 1.04 log | Log Reduction, Growth Inhibition, A.a. ([3]; Compound A 2.50%): 1.13 log | Log Reduction, Growth Inhibition, A.a. ([3]; Compound A 5%): 2.05 log | Log Reduction, Growth Inhibition, A.a. ([3]; Compound A 10%): 6.34 log | Log Reduction, Growth Inhibition, A.a. ([3]; Compound A 20%): 6.34 log | Inhibiting growth of A.a. (in words) ([3]; Compound A, only at 20% and 10% of the stock concentration): effective at inhibiting growth | Log Reduction, Growth Inhibition, P. gingivalis ([4]; Compound A 0.15%): −0.89 log | Log Reduction, Growth Inhibition, P. gingivalis ([4]; Compound A 0.31%): −0.05 log | Log Reduction, Growth Inhibition, P. gingivalis ([4]; Compound A 0.62%): 0.35 log | Log Reduction, Growth Inhibition, P. gingivalis ([4]; Compound A 1.25%): 0.44 log | Log Reduction, Growth Inhibition, P. gingivalis ([4]; Compound A 2.50%): 0.11 log | Log Reduction, Growth Inhibition, P. gingivalis ([4]; Compound A 5%): −0.19 log | Log Reduction, Growth Inhibition, P. gingivalis ([4]; Compound A 10%): −0.71 log | Log Reduction, Growth Inhibition, P. gingivalis ([4]; Compound A 20%): 0.36 log | Inhibiting growth of P. gingivalis (in words) [4, 11]: ineffective; also recorded: No inhibition | MIC Cut-off, A.a. [5]: 10% | MIC Cut-off, P. gingivalis [6]: >20% | MBC Cut-off, A.a. [7]: >20% | MBC Cut-off, P. gingivalis [8]: >20% | MBEC Cut-off, A.a. [9]: >20% | MBEC Cut-off, P. gingivalis [10]: >20%
